Experimental data from US9168266B2, “Hybrid diazeniumdiolated compounds, pharmaceutical compositions, and method of treating cancer” (The United States of America, as represented by the …, priority 2011, dated 2015).
Read-outs that look alike come from different tables or passages of the source.

Tests used:
PARP enzyme = biological target: T1, PARP enzyme (Homo sapiens, UniProt P09874); assay: PARP enzyme inhibition, HT Universal Colorimetric PARP assay kit with GSH; format: biochemical; conditions: GSH 1 mM added to activate prodrugs; absorbance 450 nm
T1 construct: purchased Trevigen, Gaithersburg, Md
Protocol: PARP enzyme inhibition was measured using HT Universal Colorimetric 96-well PARP assay kit (Trevigen, Gaithersburg, Md.), according to manufacturer's protocol with small modifications. GSH (1 mM final concentration) was added to the wells containing inhibitors, to allow activation of the prodrugs. The absorbance at 450 nm was measured.

NSCLC cells [1] = assay: Western blot for cleaved caspase 7 (apoptosis); format: cell-based; conditions: 10 μm, DMSO control
Protocol: (§1) The alkaline comet assay was performed as described (Romanowska et al., Free Radical Biol. Med., 43: 1145-1155 (2007)). Western blot analysis was performed as described previously (Maciag et al., J. Pharmacol. Exp. Ther., 336: 313-320 (2011)). Primary antibodies for cleaved caspase 7 (Cell Signaling Technology, Danvers, Mass.) were used.

[2] = tested on: H1703 lung adenocarcinoma cells; assay: Intracellular ROS/RNS level, DCF fluorescence; format: cell-based; conditions: 10 μM, 60 min, versus DMSO
Protocol: Intracellular level of reactive oxygen/nitrogen species was quantified by the oxidation of the ROS/RNS-sensitive fluorophore 5-(and-6)-chloromethyl-2′,7′-dichlorodihydrofluorescein diacetate (Invitrogen, Carlsbad, Calif.). Cells growing on six-well plates (6×10^5/well) were loaded with 5 μM 5-(and-6)-chloromethyl-2′,7′-dichlorodihydrofluorescein diacetate in Hanks' balanced salt solution (HBSS) at 37° C. and 5% CO2. After 30 min of incubation, HBSS containing the probe was removed, cells were rinsed with HBSS, and 3 ml of fresh HBSS was added to each well followed by the addition of compounds (10 μM) or DMSO as a control. After 60 min, the cells were collected by scraping in HBSS, and 2′,7′-dichlorofluorescein (DCF) fluorescence was measured by using a PerkinElmer Life and Analytical Sciences (Waltham, Mass.) LS50B luminescence spectrometer with the excitation source at 488 nm and emission at 530 nm.

[3] = tested on: H1703 lung adenocarcinoma cells; assay: Intracellular NO release, DAF-FM diacetate fluorescence; format: cell-based; conditions: 10 μM; for intracellular NO release (DAF fluorescence): 30 min, H1703 cells; for cell permeability: inferred from intracellular NO release
Protocol: The intracellular level of nitric oxide after treatment with the compounds JS-59-183 or JS-60-178 was quantified by using the NO-sensitive fluorophore 4-amino-5-methylamino-2,7 difluorofluorescein (DAF-FM) diacetate (Invitrogen, Carlsbad, Calif.). Cells growing on six-well plates were loaded with 2.5 μM DAF-FM diacetate in HBSS at 37° C. and 5% CO2. After 30 min of incubation, the cells were rinsed with HBSS to remove excess probe, and compounds in fresh HBSS was added to the cells at 10 μM final concentration. After 30 min incubation, the fluorescence of the benzotriazole derivative formed on DAF-FM's reaction with aerobic NO was analyzed by using a PerkinElmer Life and Analytical Sciences LS50B luminescence spectrometer with the excitation source at 495 nm and emission at 515 nm. All experiments were performed at least three times, each time at least in triplicate.

H460 = assay: MTT cell proliferation assay; format: cell-based, human
Protocol: (§2) Cell lines were obtained from the American Type Culture Collection (Manassas, Va.) and cultured according to the supplier's protocol. For proliferation assays cells were seeded at 1×10^4 per well (H1693, H322M, H1703, H1944, H1355, H2122, H441, H1568) or 5×10^3 per well (H460, H1792, A549, H2023, H2030, H23) in 96-well plates and allowed to adhere for 24 h. Compounds were prepared as 10 mM stock solutions in DMSO. Increasing drug concentrations in 10 μl of PBS were added to 100 μl of the culture medium for 72 h. MTT assay (Promega, Madison, Wis.) was performed according to the manufacturer's protocol. Each concentration was represented in six repeats, and the screening was performed as at least two independent experiments. IC50 values were calculated by using Sigma Plot software (Systat Software, Inc., San Jose, Calif.).

A549 = assay: MTT cell proliferation assay; format: cell-based; conditions: A549, 72 h
Protocol: as §2

H1693 = assay: MTT cell proliferation assay; format: cell-based
Protocol: as §2

H1568 = assay: MTT cell proliferation assay; format: cell-based
Protocol: as §2

H2030 = assay: MTT cell proliferation assay; format: cell-based
Protocol: as §2

H1703 = assay: MTT cell proliferation assay; format: cell-based
Protocol: as §2

H1355 = assay: MTT cell proliferation assay; format: cell-based
Protocol: as §2

H2023 = assay: MTT cell proliferation assay; format: cell-based
Protocol: as §2

H2122 = assay: MTT cell proliferation assay; format: cell-based
Protocol: as §2

H1944 = assay: MTT cell proliferation assay; format: cell-based
Protocol: as §2

H1792 = assay: MTT cell proliferation assay; format: cell-based
Protocol: as §2

H23 = assay: MTT cell proliferation assay; format: cell-based
Protocol: as §2

H322M = assay: MTT cell proliferation assay; format: cell-based; conditions: 72 h
Protocol: as §2

H441 = assay: MTT cell proliferation assay; format: cell-based
Protocol: as §2

NSCLC cells [4] = assay: Alkaline comet assay (DNA strand breaks); format: cell-based
Protocol: as §1

NSCLC cell lines = assay: MTT cell proliferation assay, panel summary; format: cell-based; conditions: range over the NSCLC cell lines, 72 h, read-out: IC50 for growth inhibition across NSCLC cell lines
Protocol: as §2

T1 sequence (P09874 whole entry): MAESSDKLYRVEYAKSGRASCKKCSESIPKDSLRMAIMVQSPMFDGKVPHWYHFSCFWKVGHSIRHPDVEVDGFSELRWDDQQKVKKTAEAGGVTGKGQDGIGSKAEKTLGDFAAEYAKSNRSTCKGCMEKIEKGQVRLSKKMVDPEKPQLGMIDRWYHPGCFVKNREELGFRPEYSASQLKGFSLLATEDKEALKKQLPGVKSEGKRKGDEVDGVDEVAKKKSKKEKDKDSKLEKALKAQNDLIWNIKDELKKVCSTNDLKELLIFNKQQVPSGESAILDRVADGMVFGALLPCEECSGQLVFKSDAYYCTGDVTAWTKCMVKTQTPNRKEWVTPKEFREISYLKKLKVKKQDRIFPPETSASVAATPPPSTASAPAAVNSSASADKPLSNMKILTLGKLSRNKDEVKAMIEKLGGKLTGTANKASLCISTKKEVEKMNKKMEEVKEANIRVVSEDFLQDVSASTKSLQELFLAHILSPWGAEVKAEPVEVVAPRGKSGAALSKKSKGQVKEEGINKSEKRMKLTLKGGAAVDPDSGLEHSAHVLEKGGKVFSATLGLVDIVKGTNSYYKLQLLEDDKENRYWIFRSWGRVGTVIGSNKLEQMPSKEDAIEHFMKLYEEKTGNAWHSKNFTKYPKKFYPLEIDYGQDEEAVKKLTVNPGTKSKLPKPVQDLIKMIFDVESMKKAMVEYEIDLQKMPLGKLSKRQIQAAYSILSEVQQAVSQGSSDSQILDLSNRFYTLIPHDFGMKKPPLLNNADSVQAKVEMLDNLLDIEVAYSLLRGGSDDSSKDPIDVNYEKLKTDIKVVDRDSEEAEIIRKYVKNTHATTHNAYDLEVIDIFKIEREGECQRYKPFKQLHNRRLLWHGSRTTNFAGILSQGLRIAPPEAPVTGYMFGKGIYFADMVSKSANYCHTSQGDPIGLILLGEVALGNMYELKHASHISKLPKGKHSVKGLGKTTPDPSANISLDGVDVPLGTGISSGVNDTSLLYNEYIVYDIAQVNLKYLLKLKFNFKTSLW

Row | SMILES | IC50 (PARP enzyme) [µM] | apoptotic signal (cleaved caspase 7) (NSCLC cells [1]) | ROS generation (DCF fluorescence) [2] | intracellular NO release (DAF fluorescence) [3] | cell permeability [3] | TGI (total growth inhibition) (H460; H460, 72 h) [µM] | TGI (total growth inhibition) (A549) [µM] | TGI (total growth inhibition) (H1693; H1693, 72 h) [µM] | TGI (total growth inhibition) (H1568; H1568, 72 h) [µM] | TGI (total growth inhibition) (H2030; H2030, 72 h) [µM] | TGI (total growth inhibition) (H1703; H1703, 72 h) [µM] | TGI (total growth inhibition) (H1355; H1355, 72 h) [µM] | TGI (total growth inhibition) (H2023; H2023, 72 h, MTT) [µM] | TGI (total growth inhibition) (H2122; H2122, 72 h) [µM] | TGI (total growth inhibition) (H1944; H1944, 72 h) [µM] | TGI (total growth inhibition) (H1792; H1792, 72 h) [µM] | TGI (total growth inhibition) (H23; H23, 72 h, MTT) [µM] | TGI (total growth inhibition) (H322M; H322M, MTT) [µM] | TGI (total growth inhibition) (H441; H441, 72 h) [µM] | also measured
1 | O=C(c1cccc(Cc2n[nH]c(=O)c3ccccc23)c1)N1CCN([N+]([O-])=NOc2ccc([N+](=O)[O-])cc2[N+](=O)[O-])CC1 [JS-59-183, 2,4-dinitrophenyl 4-[5-[(4-oxo-3H-phthalazin-1-yl)methyl]-benzoyl]piperazine-1-yl-1-ium-1,2-diolate] | 0.00825 | strong apoptotic signal | increase in ROS generation | decompose within the cell releasing NO | cell permeable | 24.8 | 26.0 | 7.3 | 9.0 | 25.0 | 11.2 | 23.0 | 32.5 | 25.0 | 28.0 | 20.0 | 15.2 | 14.0 | 11.7 | IC50 (H460; H460, 72 h): 13.8 µM; IC50 (A549): 16.8 µM; IC50 (H1693; H1693, 72 h): 5.3 µM; IC50 (H1568; H1568, 72 h): 6.5 µM; IC50 (H2030; H2030, 72 h): 13.8 µM; IC50 (H1703; H1703, 72 h): 6.8 µM; IC50 (H1355; H1355, 72 h): 11.4 µM; IC50 (H2023; H2023, 72 h, MTT, read-out: IC50): 19.4 µM; IC50 (H2122; H2122, 72 h): 11.2 µM; IC50 (H1944; H1944, 72 h): 14 µM; IC50 (H1792; H1792, 72 h): 14 µM; IC50 (H23; H23, 72 h, MTT, read-out: IC50): 7.5 µM; IC50 (H322M; H322M, MTT, read-out: IC50): 9 µM; IC50 (H441; H441, 72 h): 8.1 µM
2 | O=C(c1cc(Cc2n[nH]c(=O)c3ccccc23)ccc1F)N1CCN(C(=O)C2CC2)CC1 [Olaparib, olaparib, reference compound] | – | did not trigger apoptosis | – | – | – | 37 | 100 | 65 | 113 | 117 | – | 113 | 85 | 140 | 88 | 38 | 70 | 360 | 84 | IC50 (H2023; NCI-H2023, 72 h): 20 µM; IC50 (H23; Homo sapiens, NCI-H23, 72 h): 10 µM; IC50 (H322M; Homo sapiens, NCI-H322M): 50 µM
3 | O=C(c1cc(Cc2n[nH]c(=O)c3ccccc23)ccc1F)N1CCN([N+]([O-])=NOc2ccc([N+](=O)[O-])cc2[N+](=O)[O-])CC1 [JS-60-178, 2,4-dinitrophenyl 4-[2-fluoro-5-[(4-oxo-3H-phthalazin-1-yl)methyl]-benzoyl]piperazine-1-yl-1-ium-1,2-diolate] | 0.0029 | strong apoptotic signal | increase in ROS generation | decompose within the cell releasing NO | cell permeable | 24.0 | 22.0 | 6.6 | 4.0 | 15.2 | 6.7 | 15.0 | 25.0 | 11.0 | 19.0 | 19.0 | 12.3 | 11.6 | 6.2 | comet signal compared with Olaparib (20 μm) (NSCLC cells [4]; 5 μM, 24 hours): stronger comet signal; DNA strand break damage by Comet assay (NSCLC cells [4]; 24 hours treatment): significant DNA strand break damage; IC50 (NSCLC cell lines): 3 to 20 µM; IC50 (H460; Homo sapiens, NCI-H460, H460, 72 h): 16.4 µM; IC50 (A549; Homo sapiens): 13.5 µM; IC50 (H1693; Homo sapiens, NCI-H1693, H1693, 72 h): 5.4 µM; IC50 (H1568; NCI-H1568, H1568, 72 h): 3 µM; IC50 (H2030; Homo sapiens, NCI-H2030, H2030, 72 h): 9.2 µM; IC50 (H1703; Homo sapiens, NCI-H1703, H1703, 72 h): 4.3 µM; IC50 (H1355; Homo sapiens, NCI-H1355, H1355, 72 h): 8.2 µM; IC50 (H2023; NCI-H2023, H2023, 72 h, MTT, read-out: IC50): 15 µM; IC50 (H2122; Homo sapiens, NCI-H2122, H2122, 72 h): 7.5 µM; IC50 (H1944; Homo sapiens, NCI-H1944, H1944, 72 h): 10.5 µM; IC50 (H1792; Homo sapiens, NCI-H1792, H1792, 72 h): 12.7 µM; IC50 (H23; Homo sapiens, NCI-H23, H23, 72 h, MTT, read-out: IC50): 8.4 µM; IC50 (H322M; Homo sapiens, NCI-H322M, H322M, MTT, read-out: IC50): 7.9 µM; IC50 (H441; Homo sapiens, NCI-H441, H441, 72 h): 4.5 µM
